Laboratory results published in PubChem BioAssay (NCI).
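GI50 = concentration required for 50% inhibition of growth. TGI marks complete inhibition of growth.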

Key:
Assay in all cases: NCI anticancer screen, dose series, 384-well format
ACHN renal = tested on: ACHN renal
HCT-116 colon = tested on: HCT-116 colon
HOP-62 NSCLC = tested on: HOP-62 NSCLC
HS 578T breast = tested on: HS 578T breast
IGROV1 ovarian = tested on: IGROV1 ovarian
LOX IMVI melanoma = tested on: LOX IMVI melanoma
MCF7 breast = tested on: MCF7 breast
MDA-MB-468 breast = tested on: MDA-MB-468 breast
NCI-H460 NSCLC = tested on: NCI-H460 NSCLC
NCI-H522 lung = tested on: NCI-H522 lung
OVCAR-3 ovarian = tested on: OVCAR-3 ovarian
OVCAR-8 ovarian = tested on: OVCAR-8 ovarian
SNB-75 CNS = tested on: SNB-75 CNS

Structure (SMILES): C[C@]12CCCN1CC1=NNC(=O)c3cc(F)cc4[nH]c2c1c34
- GI50 (ACHN renal): 24 µM
- TGI (ACHN renal): > 76.2 µM
- GI50 (HCT-116 colon): 9 µM
- TGI (HCT-116 colon): 43.3 µM
- GI50 (HOP-62 NSCLC): 10.9 µM
- TGI (HOP-62 NSCLC): 45.6 µM
- GI50 (HS 578T breast): 13.6 µM
- TGI (HS 578T breast): 30.1 µM
- GI50 (IGROV1 ovarian): 21.7 µM
- TGI (IGROV1 ovarian): > 89.6 µM
- GI50 (LOX IMVI melanoma): 16.3 µM
- TGI (LOX IMVI melanoma): 60.4 µM
- GI50 (MCF7 breast): 19.4 µM
- TGI (MCF7 breast): 71.1 µM
- GI50 (MDA-MB-468 breast): 3.57 µM
- TGI (MDA-MB-468 breast): 18.8 µM
- GI50 (NCI-H460 NSCLC): 4.64 µM
- TGI (NCI-H460 NSCLC): 20.6 µM
- GI50 (NCI-H522 lung): 16.8 µM
- TGI (NCI-H522 lung): 44.6 µM
- GI50 (OVCAR-3 ovarian): 14 µM
- TGI (OVCAR-3 ovarian): 39.9 µM
- GI50 (OVCAR-8 ovarian): 13 µM
- TGI (OVCAR-8 ovarian): 35.7 µM
- GI50 (SNB-75 CNS): 23.3 µM
- TGI (SNB-75 CNS): > 67.2 µM
